Reference: patent publication US6514967B1 (priority 1997, dated 2003)

Assays:
astrocytes = assay: Recapture of glutamate by cultures of astrocytes, radicals generated by xanthine/xanthine oxidase (X/XO); type: cell-based, rats
Protocol: B) Procedure with cultures of astrocytes and generation of radicals by the xanthine/xanthine oxidase (X/XO) pair
400 μl of D-lysine at 25 μg/ml (9 ml of D-lysine at 100 μg per ml of borate buffer (0.1M pH 8.4)+27 ml of water) is placed in each well of 24-well culture plates. The wells are left in the stove (5% CO2, 37° C.) over night. Each well is rinsed with 2 times 750 μl of Hanks before receiving the culture medium. 3 lateral demi cortices are taken from rats aged 1 to 2 days. (The hippocampus, the striatum and the meninges are removed). The demi cortices are placed in 2 ml of trypsin-EDTA then put in the stove for 30 min. The action of the trypsin is stopped with 10% of decomplemented foetal calf serum (200 μl). The serum and the trypsin are removed then the cells are dissociated with a pipette in 10 ml of medium (MEM 225 ml+FCS-D 25 ml+glucose 20% 7.5 ml) (MEM=minimum essential medium; FCS-D=decomplemented foetal calf serum). The culture medium is made up to 30 ml, stirred and placed at 400 μl per well. The medium is changed twice weekly for 18 days. The last replacement is effected 4 days prior to the treatment, with a medium without decomplemented foetal calf serum. (MEM 31.5 ml+glucose 20% 1.05 ml).
Treatment takes place on the 18th or 19th day.
Each well is washed with 750 μl of buffer (NaCl 124 mM, KCl 4.6 mM, CaCl2 1.2 mM, MgCl2 1.3 mM, KH2PO4 0.416 mM, NaHCO3 26.75 mM, glucose 10 mM; pH 7.4) for 10 min. The cells are incubated in the presence of xanthine (500 μM) and of the test product (from 0 to 1 mM). After 10 min, xanthine oxidase is added (50 mU/ml) and it is again left to incubate for 10 min. Release of radicals is stopped by washing 3 times with catalase (3000 U/ml). The glutamate is then recaptured in a solution of radioactive glutamate (^3H) at 40 μM (isotopic dilution 1/20000). Recapture is stopped by washing 3 times with the cold buffer. The cells are detached with soda 0.2N and the radioactivity is measured.
Firstly we checked that the inhibition of recapture observed in the presence of X/XO is indeed due to a radical process. For this we replaced the test products with two enzymes: SOD (SuperOxide Dismutase) and catalase (FIG. 1). […] The Fenton reaction converting hydrogen peroxide to OH• is thus short-circuited. […] However, as there seems to be sufficient reducing agent in the medium to promote the formation of H2O2 starting from O2^•^−, it appears likely that a substantial proportion of H2O2 gives OH• (a highly reactive radical).
FIGS. 3 to 8 are the mean of at least 4 independent tests in which the protective power of IC180, IC023, IC241, IC2-16, IC178, IC140, IC209, IC237, IC146, IC193, IC194, IC242, IC207, IC2-19, IC219, IC2-21, and IC249, as a function of the dose, was tested against a fixed concentration of radicals, and therefore of X/XO. In the case of IC180, the increase in recapture appears to be linear (up to 100% is found in some tests). […] Since IC023 alone only becomes “toxic” starting from 1 mM, the variation observed starting from 0.6 mM might reflect the existence of metabolites that are poorly tolerated by the cells. The derivative morpholine IC180 is more interesting.

[1] = test system: release of free radicals induced by glutamate in the striatum; assay: In vivo intracerebral perfusion (striatum microdialysis), generation of radicals by injection of glutamate; conditions: 1 mM in perfusion medium
Description: C) tests in vivo on intracerebral perfusion and generation of radicals by injection of glutamate.
Experimental preparation: [J. Neurosci. Methods, 72 (1997) 123-135]
The animals used are male rats of the Wistar strain weighing 250 g. Under general anaesthesia, the animals are placed in a stereotaxic apparatus. A cannula guide is introduced by microsurgery into the striatum (coordinates A : +0.02 cm; L: −0.30 cm and H: −0.65 cm relative to the 0 point defined according to Paxinos and Watson). Three to four screws are arranged on the animal's skull and the whole is fixed with dental cement (Durelon). After a recovery period during which the animals become used to the tester, a CMA 12 microdialysis cannula is inserted in the guide in such a way that the cellophane membrane projects 2 mm into the brain tissue. All the perfusions are effected on animals that are awake. A physiological solution (NaCl: 140 mM; KCl: 5 mM; […]: 3.9 mM), to which 250 μM of Na salicylate is added extemporaneously, is injected into the system at a constant flow rate of 1 μl.min^−1. […]
Salicylic acid present in the perfusion fluid reacts with the OH radicals released at the perfusion site, forming a compound, 2,3-dihydroxybenzoic acid (2,3-DBHA), which is specific to this reaction. This reaction product is quantified in each sample by high-performance liquid chromatography followed by Electrochemical Detection. […]

Structure (SMILES): c1cc2c(s1)CCCC2N1CCOCC1 (stereo not shown) [IC180, morpholine-4-tetrahydro-4,5,6,7-benzothiophene]
- increase in recapture of glutamate, highest found (astrocytes; fixed concentration of X/XO, dose-dependent, found in some tests): up to 100%
- effect of the product alone on recapture (astrocytes; without the presence of X/XO): no effect on recapture
- release of free radicals induced by glutamate (2,3-dihydroxybenzoic acid) ([1]; striatum, awake rats, 1.5 mM Na glutamate, FIG. 9): Blocking
- toxic side effect of introduction in situ ([1]; response restored a week later): did not have a toxic side effect
